Values of other authors as cited in patent US11773445B1, “Diagnostic methods” (GRIFFITH UNIVERSITY, priority 2015, dated 2023).

Settings: CFS patients; multiple Rituximab infusions

Substance: Rituximab: drug given as multiple infusions to CFS patients in a cited study; anti-CD20 intervention
- patients responded: 15 of 25
